Patent US10045966B2, “Compositions and methods for treating microbial infections” (Vanderbilt Univeristy, priority 2012, dated 2018)
Entries after “also recorded” stand apart in the source; their conditions may differ.

Assays:
S. aureus [1] = assay: Systemic staphylococcal infection in mice, liver CFUs and abscesses; type: in vivo; details: mice infected intravenously, intraperitoneal treatment, 96 h
Procedure: FIGS. 16A-16D show embodiments of the preset invention reduce S. aureus pathogenesis in vivo. Mice infected retroorbitally with S. aureus were treated intraperitoneally with vehicle (10% Tween 80) or '373. After 96 h mice were sacrificed and (A) CFUs and (B) surface abscesses were enumerated from the livers. Each marker represents an individual mouse. Data were collected from three independent experiments resulting in n=13 for vehicle and n=12 for '373-treated mice once the highest and lowest values were removed from each group. The horizontal line indicates the mean and the error bars represent the standard error of the mean. Statistical significance was determined by a two-tailed Student's t-test. Livers from mice treated with the indicated dose of '373 were harvested 24 h post-infection (1 h after the 2nd treatment), sectioned, and mounted on MALDI target plates (C). (D) Tissue sections were imaged by MALDI-MS/MS for accumulation of a fragment of '373 by MALDI-MS/MS (m/z 255.2→134). Spectra were acquired at 10 microscans per step. 5 laser shots were acquired per pixel and pixels were obtained every 100 μm.

S. aureus [2] = assay: Pre-adaptation for heme toxicity, growth curve analysis; type: cell-based; details: overnight pre-treatment, subculture into 20 μM heme
Procedure: FIGS. 9A-9C describe a high throughput screen that identifies small molecule activators of HssRS. (A) A secondary screen consisting of a XylE reporter assay verified the activity of the top 110 hits from the primary screen, including '882. Triplicate cultures of S. aureus WT and ΔhssR transformed with the hrtAB promoter-xylE fusion-containing plasmid (phrt.xylE) were grown in the presence of the indicated additive and XylE activity was measured. (B) The structure of lead compound VU0038882 (′882). (C) '882 was confirmed as a hit in a tertiary screen that measured the ability of the compound to pre-adapt S. aureus for growth in 20 μM heme. Triplicate cultures of WT S. aureus were grown overnight in medium containing the indicated additive and sub-cultured into medium containing 20 μM heme. Growth was monitored by measuring the optical density at 600 nm (OD600) over time. […]
The present inventors designed and conducted a screening assay to identify activators of HssRS. With reference to FIG. 2A, a reporter plasmid containing the luxABCDE operon from Photorhabdus luminescens driven by the hrtAB promoter (phrt.lux) was used to screen 160,000 compounds from the VICB small molecule library with luminescence. […] The inhibition of growth due to heme toxicity is determined by measuring the optical density of bacterial cultures at 600 nm. […]

[3] = Liver tissue level by Imaging Mass Spectrometry and HPLC-MS; details: HPLC-MS of excised liver, 24 h post-infection
S. aureus [4] = type: cell-based; details: for Growth of ΔmenB (cannot respire, solely ferments): S. aureus ΔmenB, aerobic and anaerobic
HssRS = assay: XylE reporter assay (hrtAB promoter-xylE fusion) for HssRS activation; type: cell-based, S. aureus; details: for HssRS activation (XylE reporter activity): S. aureus carrying phrt.xylE; for HssRS activation in heme auxotroph ΔhemB: S. aureus hemB::ermC (ΔhemB) carrying phrt.xylE
Procedure: FIGS. 9A-9C describe a high throughput screen that identifies small molecule activators of HssRS. (A) A secondary screen consisting of a XylE reporter assay verified the activity of the top 110 hits from the primary screen, including '882. Triplicate cultures of S. aureus WT and ΔhssR transformed with the hrtAB promoter-xylE fusion-containing plasmid (phrt.xylE) were grown in the presence of the indicated additive and XylE activity was measured. (B) The structure of lead compound VU0038882 (′882). (C) '882 was confirmed as a hit in a tertiary screen that measured the ability of the compound to pre-adapt S. aureus for growth in 20 μM heme. Triplicate cultures of WT S. aureus were grown overnight in medium containing the indicated additive and sub-cultured into medium containing 20 μM heme. Growth was monitored by measuring the optical density at 600 nm (OD600) over time. (A and C) Error bars represent one standard deviation from the mean.
The present inventors designed and conducted a screening assay to identify activators of HssRS. With reference to FIG. 2A, a reporter plasmid containing the luxABCDE operon from Photorhabdus luminescens driven by the hrtAB promoter (phrt.lux) was used to screen 160,000 compounds from the VICB small molecule library with luminescence. With reference to FIG. 2B, 110 of the top hits from the primary screen were confirmed in a secondary screen using a xylE reporter gene driven by the hrtAB promoter (phrt.xylE). […] Activation of HssRS by a sub-toxic concentration of heme protects S. aureus from a subsequent toxic concentration of heme by upregulating HrtAB. The inhibition of growth due to heme toxicity is determined by measuring the optical density of bacterial cultures at 600 nm. In each screen the present inventors identified hits by comparing their activity to that of heme. […] Cultures of wildtype and ΔhssR carrying phrt.xylE were assayed for XylE activity upon '8882 treatment. The screening method designed by the present inventors as able to successfully identify small molecule activators of the S. aureus heme stress response.
Analogs of '882 were divided into two classes, and chemical modifications of both the Western-naphthol ring and the Eastern-furan ring were conducted. Each set was screened against the XylE assay with heme and '882 as standards for comparison. […] Examples of synthesized compounds and their activity classifications are shown above.

intracellular heme = assay: Intracellular heme quantification; type: cell-based, S. aureus; details: for Intracellular (endogenous) heme levels: pyridine hemochromogen assay / UPLC-MS
Procedure: (B) Heme levels in triplicate cultures of S. aureus treated with the indicated additive were quantified using the pyridine hemochromogen assay and normalized to the concentration of protein in the whole cell lysates. […] (A and B) Error bars represent one standard deviation from the mean. (C) Exact-mass mass spectrometric analysis was used in conjunction with UPLC to detect and quantify heme in protoplasts from cells treated with 40 μM '882 or vehicle grown in triplicate. Measured heme molecules were referenced to estimated CFUs per pellet, factoring in dilutions. Dead or lysed cells would also contribute to the measurement. […] Samples measured in duplicate or triplicate injections had typical errors of <5% between analytical replicates. Error bars represent the standard deviation and significance was calculated using a two-tailed Student's t-test.
Heme levels were quantified using the pyridine hemochromogen assay and normalized to the concentration of protein in the whole cell lysates.
To directly test if '882 exposure increases heme levels within staphylococci, intracellular heme abundance was measured using two distinct approaches. First, intracellular heme levels were quantified using a commercially available heme quantification kit (BioAssay systems).

[5] = system: Staphylococcus haemolyticus; assay: Adaptation to heme toxicity, growth curve; type: cell-based; details: S. haemolyticus, subculture into 30 μM heme, versus non-adapted cultures
[6] = system: Corynebacterium diphtheriae; assay: Adaptation to heme toxicity, CFU enumeration; type: cell-based; details: C. diphtheriae, subculture into 15 μM heme, versus non-adapted cultures
S. aureus [7] = type: cell-based; details: 24 h; for Viable and gentamicin-resistant bacteria, single agent: treatment alone
Procedure: (A) S. aureus wildtype (WT, dashed lines), the menaquinone auxotroph (ΔmenB, dotted lines), and the heme auxotroph hemB::ermC (ΔhemB, solid lines) were grown in triplicate under aerobic (aer, black lines) and anaerobic (ana, gray lines) conditions in the presence of the indicated log of the concentration of '882 (μM). After 18 h the absorbance at 600 nm (OD600) was measured and normalized to vehicle (DMSO) treated bacteria. Curves were fit by nonlinear regression analysis and absolute log IC50 values were calculated in Prism with the top set at 1.0 and the bottom set at 0.15. […] Error bars represent the standard error of the mean. (B) Triplicate cultures of S. aureus were grown in the presence of the indicated additive. […] Shown is the average of three independent experiments. Error bars represent one standard deviation from the mean. (C) S. aureus was grown in the presence of vehicle (DMSO) or 40 μM '882 and coated in serum. Murine PMNs were elicited with casein and harvested from the peritoneum. The ability of neutrophils to kill S. aureus in the presence of '882 was assessed by comparing CFUs recovered from neutrophil-exposed S. aureus to those recovered from identical conditions lacking neutrophils. The mean of at least six independent experiments performed in triplicate are represented by the data; error bars represent standard error of the mean and significance was determined by a two-tailed Student's t-test.
S. aureus SCVs are obligate fermenters that emerge in response to aminoglycoside treatment. […] To test this, S. aureus was grown in the presence of vehicle, gentamicin, '882, or a combination of gentamicin and '882, and the evolution of gentamicin resistance was monitored.

S. aureus [8] = assay: Nitric oxide stress of S. aureus; type: cell-based; details: simultaneous exposure to NO.
Procedure: (§1) The effects of '8882 on fermentation was studied. With reference to FIG. 7A, S. aureus was grown in the presence of the indicated concentration of '8882 or cyanide. Growth was monitored over time by measuring the optical density at 600 nm and normalized to vehicle treated S. aureus. With reference to FIG. 7B, the concentration of glucose and lactate was measured in supernatants collected from S. aureus cultures containing vehicle or '8882. With reference to FIG. 7C, S. aureus grown in the presence or absence of '8882 was subjected to nitric oxide stress after 5 hours of growth. With reference to FIG. 7D, S. aureus was incubated with murine neutrophils in media containing either vehicle or '8882. Bacterial viability was determined by enumerating colony forming units on solid media.

[9] = Chemical stability, rule of five and solubility; details: free base and trifluoroacetate salt
IsdG = IsdG abundance by immunoblot as reporter of cytoplasmic heme; type: cell-based, S. aureus
Procedure: Wild type and ΔhemV S. aureus transformed with isdG driven under the constitutive Igt promoter (pIgt.isdG) were grown in the presence of increasing concentrations of '8882. Whole cell lysates, along with a protein standard, were blotted with anti IsdG polyclonal antisera and IsdG levels were quantified by densitometry.
Second, the intracellular abundance of the heme stabilized protein IsdG was used as a barometer of functional cytoplasmic heme levels (43), i.e., IsdG is a heme stabilized protein that can be used as a reporter for intracellular heme levels. With reference to FIG. 4A, S. aureus ΔisdG and ΔhemB were transformed with a plasmid that constitutively expresses IsdG (plgt.isdG). These strains were grown to stationary phase in the presence of the indicated concentration of '8882 or heme. Whole cell lysates were immunoblotted with anti-IsdG polyclonal antisera and bands were quantified using densitometry.
To determine if the endogenous heme produced as a result of '882 exposure is available for use in cellular processes, cytoplasmic heme availability was measured by quantifying intracellular levels of the cytoplasmic heme oxygenase IsdG. In the absence of exogenous heme, IsdG is rapidly degraded; however, heme binding stabilizes IsdG and reduces its proteolytic degradation. Therefore, the abundance of IsdG reflects the cytoplasmic levels of heme.

S. aureus Newman = assay: Co-treatment with kanamycin, CFU enumeration after 24 h; type: cell-based; details: TSB
Procedure: With reference to FIG. 8A, S. aureus Newman was cultured in TSB containing the indicated amount of kanamycin or '8882. After 24 h colony forming units (CFUs) were enumerated on solid medium. The dashed line indicates the limit of detection (LOD) and the asterisk denotes that two of the three replicates were below the LOD. Turning to FIG. 8B, 50 ul of each experimental groups was plated on TSA at a dilution of 1:100 except for the co-treatment group, which was plated undiluted. Two of the three co-treated replicates had no viable colonies.

S. aureus [10] = assay: Fermentative activity: pH, D-glucose and lactate in culture supernatants; type: cell-based; details: aerobic cultures
Procedure: FIGS. 12A-12C show examples of the present invention diminish fermentative activity. S. aureus was grown in triplicate under aerobic conditions in the presence of vehicle (black lines) or 40 μM '882 (gray lines). At the indicated time intervals, culture supernatants were sampled and the (A) pH, (B) D-glucose, and (C) D- and L-lactate were quantified. Error bars represent one standard deviation from the mean.
as §1

C. diphtheriae = assay: Growth of C. diphtheriae; type: cell-based
neutrophils = type: cell-based, Murine
S. aureus [11] = assay: Neutrophil killing of S. aureus; type: cell-based; details: murine PMNs, 40 μM

Oc1ccccc1-c1cc(-c2ccccc2F)[nH]n1 ['373]
Decrease in CFUs recovered from the livers versus vehicle (S. aureus [1]): 1 log | Number of liver abscesses (S. aureus [1]): significant reduction in the number of liver abscesses | Pre-adaptation of S. aureus for heme toxicity (S. aureus [2]): pre-adapt S. aureus for heme toxicity | Liver tissue level versus dose [3]: linear relationship between tissue level and dose | Growth of ΔmenB (cannot respire, solely ferments) (S. aureus [4]): inhibits the growth of S. aureus ΔmenB, although to a lesser extent than '882 | HssRS activation (XylE reporter activity) (HssRS): activates HssRS

O=CC[C@@H](O)[C@H](O)[C@H](O)CO [Compound 2dG, 2-deoxyglucose, reference compound]
Intracellular (endogenous) heme levels (intracellular heme): reduces endogenous heme levels

C=CC1=C(C)c2cc3[n-]c(cc4[n-]c(cc5nc(cc1n2)C(C)=C5C=C)c(C)c4CCC(=O)O)c(CCC(=O)O)c3C.[Fe+2] [heme, reference compound]
Survival in heme after pre-treatment [5]: improved survival in heme | Survival in heme after pre-treatment [6]: improved survival in heme | HssRS activation in heme auxotroph ΔhemB (HssRS): activates HssRS in ΔhemB

gentamicin [reference compound]
Viable and gentamicin-resistant bacteria, single agent (S. aureus [7]): became resistant to gentamicin

Oc1c(-c2cc(-c3ccco3)[nH]n2)ccc2ccccc12 ['882]
Antibacterial effect of simultaneous exposure with nitric oxide (NO.) (S. aureus [8]): more antibacterial than treatment with either molecule alone | Increase of intracellular heme versus non-exposed bacteria (intracellular heme; commercial heme quantification kit (BioAssay systems)): approximately 10% | Intracellular (endogenous) heme levels (intracellular heme): increase in a dose-responsive manner | Chemical stability [9]: good chemical stability | Rule of five violations [9]: no rule of five violations | Solubility ([9]; DMSO and aqueous solution): good solubility in DMSO and aqueous solution | Intracellular abundance of IsdG (IsdG; S. aureus constitutively expressing IsdG): increases the abundance of IsdG in a concentration-dependent fashion | Stabilization of IsdG in ΔhemB (IsdG; S. aureus ΔhemB): not stabilized | Survival in heme after pre-treatment [5]: improved survival in heme | Antibiotic efficacy on co-treatment with kanamycin (S. aureus Newman): improves antibiotic efficacy in vitro | Gentamicin-resistant colonies, combination with gentamicin (S. aureus [7]; combined with gentamicin): eliminated all detectable gentamicin-resistant colonies | Reduction in bacterial viability, combination with gentamicin (S. aureus [7]; combined with gentamicin): 5 log | Viable and gentamicin-resistant bacteria, single agent (S. aureus [7]): did not affect the number of viable or gentamicin-resistant bacteria | Pre-adaptation of S. aureus for heme toxicity (S. aureus [2]): pre-adapts S. aureus for heme toxicity | Glycolytic / fermentative activity (acidification, D-glucose consumption, lactate production) (S. aureus [10]): reduced glycolytic activity | Glycolytic / fermentative activity (acidification, D-glucose consumption, lactate production) (S. aureus [10]; listed as '8882): reduces the ability of S. aureus to ferment | Growth of C. diphtheriae (C. diphtheriae): inhibits the growth of C. diphtheriae | Bacteriostatic or bacteriocidal (CFU input versus output) (S. aureus [4]): bacteriostatic to fermentatively growing staphylococci | Concentration that halts S. aureus growth (S. aureus [4]): less than 5 μM | Growth of ΔhemB (SCV deficient in heme biosynthesis) (S. aureus [4]; S. aureus ΔhemB): sensitive to '882 | Growth of ΔmenB (cannot respire, solely ferments) (S. aureus [4]): more susceptible to '882 toxicity than wildtype; also recorded: bacteriostatic | Growth of wildtype S. aureus grown anaerobically (S. aureus [4]; anaerobic): growth was dramatically reduced | Growth of S. aureus in combination with potassium cyanide (KCN) (S. aureus [4]; combined with KCN, aerobic): growth is inhibited, even under aerobic conditions | Survival in heme after pre-treatment [6]: improved survival in heme | Neutrophil viability (neutrophils): does not overtly affect neutrophil viability | HssRS activation (XylE reporter activity) (HssRS): activates the hrtAB promoter in a dose-responsive manner | HssRS activation (XylE reporter activity) (HssRS; listed as '8882): most potent activator of HssRS | HssRS activation in heme auxotroph ΔhemB (HssRS): does not activate HssRS in ΔhemB | Neutrophil-dependent killing of S. aureus (S. aureus [11]): improves neutrophil-dependent killing of S. aureus
